This note sets out measurements from ChEMBL document CHEMBL3621059, “Discovery of 4-Aryl-5,6,7,8-tetrahydroisoquinolines as Potent, Selective, and Orally Active Aldosterone Synthase (CYP11B2) Inhibitors: In Vivo Evaluation in Rodents and Cynomolgus Monkeys” (J Med Chem, 2015).

Values after ≈ are worked out from the molar mass of the structure shown. Active and inactive are the calls of the source. The rule behind the calls is not given here.

The conditions of data set [1]: human, microsomes.
Description: Clearance in human microsomes assessed per mg of protein
The conditions of data set [2]: rat, microsomes.
Description: Clearance in rat microsomes assessed per mg of protein
For data set [3] the following is noted: mouse, microsomes.
Description: Clearance in mouse microsomes assessed per mg of protein
The target of data set [4] is T1, Cytochrome P450 11B2, mitochondrial (Homo sapiens, UniProt P19099).
T1 sequence (P19099 whole entry): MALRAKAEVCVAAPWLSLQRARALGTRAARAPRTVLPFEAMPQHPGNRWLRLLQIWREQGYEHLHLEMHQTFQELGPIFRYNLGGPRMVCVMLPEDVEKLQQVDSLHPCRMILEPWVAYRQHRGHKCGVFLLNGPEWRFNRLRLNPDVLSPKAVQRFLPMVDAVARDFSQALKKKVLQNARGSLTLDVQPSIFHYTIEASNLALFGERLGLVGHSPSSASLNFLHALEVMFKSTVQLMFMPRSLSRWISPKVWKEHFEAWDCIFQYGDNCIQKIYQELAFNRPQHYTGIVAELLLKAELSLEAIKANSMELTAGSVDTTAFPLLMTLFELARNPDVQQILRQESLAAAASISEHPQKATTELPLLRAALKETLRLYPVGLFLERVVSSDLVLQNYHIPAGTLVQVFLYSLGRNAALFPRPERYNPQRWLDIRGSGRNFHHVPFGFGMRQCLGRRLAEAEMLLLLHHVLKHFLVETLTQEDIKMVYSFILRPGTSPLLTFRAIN
Description: Inhibition of human CYP11B2 expressed in human renal leiomyoblastoma cells using 11-deoxycorticosterone as substrate assessed as formation of aldosterone after 16 hrs by HTRF assay

Data set [5] is described as follows: physchem. Particulars: 1-octanol/TAPSO buffer, pH 7.4.
Data set [6] is described as follows: physchem. As to conditions: phosphate buffer, pH 6.5.
Description: Aqueous solubility of the compound in phosphate buffer at pH 6.5 by LYSA method
The nature of data set [7]: physchem. As to conditions: PAMPA. On the technique in general: In PAMPA a lipid-coated filter parts donor from acceptor wells.
Description: Permeability of the compound by PAMPA
For data set [8], the target named is T2, Cytochrome P450 11B2, mitochondrial (Rattus norvegicus, UniProt P30099).
T2 sequence (P30099 whole entry): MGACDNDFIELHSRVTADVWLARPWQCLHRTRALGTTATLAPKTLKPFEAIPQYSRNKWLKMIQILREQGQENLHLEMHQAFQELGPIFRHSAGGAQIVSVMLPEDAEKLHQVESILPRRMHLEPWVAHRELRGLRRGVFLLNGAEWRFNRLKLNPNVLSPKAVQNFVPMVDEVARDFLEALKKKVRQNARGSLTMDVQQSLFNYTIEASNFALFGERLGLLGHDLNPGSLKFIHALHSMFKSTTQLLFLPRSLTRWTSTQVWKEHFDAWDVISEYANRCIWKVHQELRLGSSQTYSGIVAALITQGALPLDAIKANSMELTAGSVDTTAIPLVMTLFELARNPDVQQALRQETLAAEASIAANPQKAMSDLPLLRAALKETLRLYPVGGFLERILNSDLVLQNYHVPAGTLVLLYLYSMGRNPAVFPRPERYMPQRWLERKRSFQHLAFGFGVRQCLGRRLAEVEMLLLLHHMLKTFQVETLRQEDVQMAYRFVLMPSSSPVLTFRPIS
In words: Inhibition of rat CYP11B2 expressed in renal leiomyoblastoma cells at 500 nM relative to control. The format is cell-based.

The target of data set [9] is T3, Cytochrome P450 11B2, mitochondrial (Mus musculus, UniProt P15539).
T3 sequence (P15539 whole entry): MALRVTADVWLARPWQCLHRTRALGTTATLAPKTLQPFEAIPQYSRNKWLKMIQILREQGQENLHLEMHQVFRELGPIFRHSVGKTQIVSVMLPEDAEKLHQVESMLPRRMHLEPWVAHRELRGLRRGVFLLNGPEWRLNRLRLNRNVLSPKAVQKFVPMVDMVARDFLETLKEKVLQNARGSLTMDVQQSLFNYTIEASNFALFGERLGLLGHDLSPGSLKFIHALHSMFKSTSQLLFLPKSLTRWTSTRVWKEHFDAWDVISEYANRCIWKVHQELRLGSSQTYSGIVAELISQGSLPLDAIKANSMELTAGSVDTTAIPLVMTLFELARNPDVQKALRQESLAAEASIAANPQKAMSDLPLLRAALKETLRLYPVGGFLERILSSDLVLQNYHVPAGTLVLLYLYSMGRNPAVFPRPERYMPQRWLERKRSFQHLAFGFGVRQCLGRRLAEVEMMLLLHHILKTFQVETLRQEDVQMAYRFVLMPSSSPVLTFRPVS
Description: Inhibition of mouse CYP11B2 expressed in renal leiomyoblastoma cells

A further data set concerns the target Cytochrome P450 2C9 (Homo sapiens, UniProt P11712).
The target in another data set is Cytochrome P450 3A4 (Homo sapiens, UniProt P08684).
The next data set concerns the target Cytochrome P450 2D6 (Homo sapiens, UniProt P10635).
The species entered for data set [10] is Rattus norvegicus. As to the kind of experiment: Induction of improvement in renal histology in angiotension-2 ZSF1 rat infusion model. In kind it is functional, organism-based.
The species entered for data set [11] is Rattus norvegicus. In words: Induction of improvement in glomerular filtration rate in angiotension-2 ZSF1 rat infusion model. In kind it is functional, organism-based.
The species entered for data set [12] is Rattus norvegicus. In words: Reduction of aldosterone level in angiotension-2 ZSF1 rat infusion model. The format is functional, organism-based.

Chain of Cytochrome P450 3A4 (P08684 whole entry): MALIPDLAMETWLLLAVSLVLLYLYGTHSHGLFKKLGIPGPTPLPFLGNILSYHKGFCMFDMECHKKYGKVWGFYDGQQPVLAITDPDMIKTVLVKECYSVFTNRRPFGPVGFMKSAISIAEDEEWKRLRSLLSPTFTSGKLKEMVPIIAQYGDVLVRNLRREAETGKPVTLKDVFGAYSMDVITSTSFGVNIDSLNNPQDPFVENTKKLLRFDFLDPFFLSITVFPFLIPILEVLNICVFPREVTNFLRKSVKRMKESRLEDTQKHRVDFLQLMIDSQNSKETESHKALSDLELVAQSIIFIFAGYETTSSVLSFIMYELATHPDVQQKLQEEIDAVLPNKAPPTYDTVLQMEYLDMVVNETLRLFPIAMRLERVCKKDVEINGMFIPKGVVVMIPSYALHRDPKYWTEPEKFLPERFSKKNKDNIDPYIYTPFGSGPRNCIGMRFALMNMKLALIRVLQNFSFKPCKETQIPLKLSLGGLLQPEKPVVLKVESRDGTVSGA
Chain of Cytochrome P450 2C9 (P11712 whole entry): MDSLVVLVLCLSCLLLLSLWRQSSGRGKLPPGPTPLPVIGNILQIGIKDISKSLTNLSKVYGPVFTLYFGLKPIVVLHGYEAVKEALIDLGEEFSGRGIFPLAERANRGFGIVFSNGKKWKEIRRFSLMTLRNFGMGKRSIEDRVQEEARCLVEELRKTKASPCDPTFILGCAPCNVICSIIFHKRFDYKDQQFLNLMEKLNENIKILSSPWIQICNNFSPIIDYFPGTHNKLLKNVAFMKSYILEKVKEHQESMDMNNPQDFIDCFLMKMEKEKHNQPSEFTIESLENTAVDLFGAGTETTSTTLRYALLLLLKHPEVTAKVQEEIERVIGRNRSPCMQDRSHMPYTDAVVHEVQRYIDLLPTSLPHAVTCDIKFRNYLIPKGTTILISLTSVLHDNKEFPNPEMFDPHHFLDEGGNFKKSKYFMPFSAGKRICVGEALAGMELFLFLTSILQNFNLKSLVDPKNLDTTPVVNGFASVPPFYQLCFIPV
Chain of Cytochrome P450 2D6 (P10635 whole entry, the tested form may be a part): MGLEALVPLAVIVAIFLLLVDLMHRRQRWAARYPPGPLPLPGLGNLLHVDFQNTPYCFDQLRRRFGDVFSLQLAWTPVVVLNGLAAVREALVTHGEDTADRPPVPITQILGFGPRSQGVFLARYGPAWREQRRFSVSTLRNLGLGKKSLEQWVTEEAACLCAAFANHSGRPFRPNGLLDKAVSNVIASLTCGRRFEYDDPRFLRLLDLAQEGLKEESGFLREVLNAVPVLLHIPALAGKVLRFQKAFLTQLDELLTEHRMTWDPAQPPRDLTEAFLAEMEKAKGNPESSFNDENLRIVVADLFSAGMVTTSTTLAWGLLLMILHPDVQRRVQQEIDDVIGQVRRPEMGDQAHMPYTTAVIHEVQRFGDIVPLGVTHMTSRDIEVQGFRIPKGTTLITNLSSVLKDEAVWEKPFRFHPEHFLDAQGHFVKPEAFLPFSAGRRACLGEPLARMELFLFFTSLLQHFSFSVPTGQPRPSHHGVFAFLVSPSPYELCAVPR
Description for Cytochrome P450 2C9: Inhibition of CYP2C9 (unknown origin)
Description for Cytochrome P450 2D6: Inhibition of CYP2D6 (unknown origin)
Description for Cytochrome P450 3A4: Inhibition of CYP3A4 (unknown origin)

As a reminder, the IC50 is the concentration needed to halve the response being measured. Read a low IC50 as higher potency. For `N#Cc1ccc(-c2cccnc2)cc1`, the CL in data set [1] was less than 10 µg/min; in data set [2] it was less than 10 µg/min; in data set [3], 53 µg/min. In addition, the IC50 in [4] worked out at 0.04 µM.
By logD is commonly meant the decadic logarithm of the distribution of all forms, ionised or not, between an organic phase and buffer at a given pH. A higher logD goes with a more lipophilic compound. As a reminder, the solubility is the dissolved amount per volume that the medium holds. A low value points to little dissolved substance. One may read the Papp as the rate of passage across a membrane or cell layer, normalised by area and donor concentration. High values mean fast passage, low ones slow passage. Take `CCC(=O)NC1CCCc2c(-c3ccc(Cl)cc3F)cncc21` (racemic): in the data set “physchem [5]”, the log distribution coefficient (logD) worked out at 3.6. For the same compound, the results for the CL in data set [1], in data set [2] and in data set [3] were less than 10 µg/min, 46 µg/min and 21 µg/min, respectively. The same compound yielded a solubility in the data set “physchem [6]” of 129 µg/mL (≈ 388 µM). The Papp in “physchem [7]” is more than 4 ×10⁻⁶ cm/s. This compound showed an IC50 in data set [4] of 0.028 µM.
The term inhibition denotes the relative decrease from the control value, in per cent. `O=C1CCc2cc(-c3cncc4ccccc34)ccc2N1` returned an inhibition at 0.5 µM in data set [8] of 65%.
For `CCC(=O)NC1CCCc2c(-c3cc(F)c(F)cc3F)cncc21` (racemic), the logD in “physchem [5]” is 3.1. The CL is less than 10 µg/min in data set [1], 78 µg/min in data set [2] and less than 10 µg/min in [3]. The concentration in solution in the data set “physchem [6]” (solubility) was 239 µg/mL (≈ 715 µM). For the same compound, the Papp in “physchem [7]” was more than 4 ×10⁻⁶ cm/s. This compound came in with a concentration for half-maximal inhibition (IC50) in data set [4] of 0.027 µM.
In the case of `N#Cc1ccc([C@H]2CCc3cncn32)c(F)c1` [OSILODROSTAT], in data set [9], the IC50 turned out to be 0.21 µM.
`CCC(=O)NC1CCCc2c(-c3ccc(Cl)c(F)c3)cncc21` (racemic) showed a logD in the data set “physchem [5]” of 3.6. Besides, the CL in data set [1] is less than 10 µg/min; in data set [2], 31 µg/min; in data set [3], 36 µg/min. This compound returned a solubility in “physchem [6]” of 99 µg/mL (≈ 297 µM). The Papp in the data set “physchem [7]” is more than 4 ×10⁻⁶ cm/s. The compound also displayed an IC50 in data set [4] of 0.014 µM.
For `CC(C)C(=O)NC1CCCc2c(-c3ccc(C#N)cc3)cncc21` (racemic), the IC50 on Cytochrome P450 2C9, at Cytochrome P450 3A4 and against Cytochrome P450 2D6 was more than 50 µM in each case. Also, the logD in “physchem [5]” stood at 2.6. Besides, the CL in data set [1], in [2] and in data set [3] was less than 10 µg/min each time. In addition, the concentration in solution in “physchem [6]” (solubility) was 90 µg/mL (≈ 282 µM). The compound also came in with a Papp in “physchem [7]” of more than 4.4 ×10⁻⁶ cm/s.
With `CCC(=O)NC1CCCc2c(-c3ccc(F)c(F)c3)cncc21` (racemic), in “physchem [5]”, the logD amounted to 3. The CL in data set [1] was less than 10 µg/min; in data set [2] it was 85 µg/min; in [3], 17 µg/min. The concentration in solution in the data set “physchem [6]” (solubility) was 310 µg/mL (≈ 980 µM). This compound returned a Papp in the data set “physchem [7]” of more than 4 ×10⁻⁶ cm/s. In [4], this compound registered an IC50 of 0.047 µM.
Turning to `COC(=O)[C@@H]1CC2=CC(=O)CC[C@]2(C)[C@@]23O[C@@H]2C[C@@]2(C)[C@@H](CC[C@@]24CCC(=O)O4)[C@H]13`, the outcome in the data set filed under Rattus norvegicus [10], in the data set filed under Rattus norvegicus [11] and in the data set filed under Rattus norvegicus [12] was Active.
Consider `N#Cc1ccc(-c2cncc3c2CCCC3N)cc1` (racemic), for which the CL was less than 10 µg/min in data set [1], less than 10 µg/min in data set [2] and 12 µg/min in [3]. In [4], this compound showed an IC50 of 0.042 µM.
Regarding `CC(=O)NC1CCCc2c(-c3ccc(C#N)cc3)cncc21` (racemic), the IC50 on Cytochrome P450 2C9 is more than 50 µM; against Cytochrome P450 3A4, more than 50 µM; on Cytochrome P450 2D6 it was more than 50 µM; in data set [4], 0.021 µM. In “physchem [5]”, the logD amounted to 1.8. In addition, the CL in [1], in data set [2] and in [3] was less than 10 µg/min throughout. Besides, the solubility in “physchem [6]” came out at 415 µg/mL (≈ 1420 µM). In the data set “physchem [7]”, this compound displayed a Papp of more than 4.4 ×10⁻⁶ cm/s.
